In patent publication US20160326142A1, “PYRAZOLE CARBOXAMIDE COMPOUNDS, COMPOSITIONS AND METHODS OF USE” (Genentech, Inc., priority 2012, published 2016):

Biological target: T1, ITK (Homo sapiens, UniProt Q08881)
T1 construct: purchased Invitrogen PV3875
T1 sequence (Q08881 1-620): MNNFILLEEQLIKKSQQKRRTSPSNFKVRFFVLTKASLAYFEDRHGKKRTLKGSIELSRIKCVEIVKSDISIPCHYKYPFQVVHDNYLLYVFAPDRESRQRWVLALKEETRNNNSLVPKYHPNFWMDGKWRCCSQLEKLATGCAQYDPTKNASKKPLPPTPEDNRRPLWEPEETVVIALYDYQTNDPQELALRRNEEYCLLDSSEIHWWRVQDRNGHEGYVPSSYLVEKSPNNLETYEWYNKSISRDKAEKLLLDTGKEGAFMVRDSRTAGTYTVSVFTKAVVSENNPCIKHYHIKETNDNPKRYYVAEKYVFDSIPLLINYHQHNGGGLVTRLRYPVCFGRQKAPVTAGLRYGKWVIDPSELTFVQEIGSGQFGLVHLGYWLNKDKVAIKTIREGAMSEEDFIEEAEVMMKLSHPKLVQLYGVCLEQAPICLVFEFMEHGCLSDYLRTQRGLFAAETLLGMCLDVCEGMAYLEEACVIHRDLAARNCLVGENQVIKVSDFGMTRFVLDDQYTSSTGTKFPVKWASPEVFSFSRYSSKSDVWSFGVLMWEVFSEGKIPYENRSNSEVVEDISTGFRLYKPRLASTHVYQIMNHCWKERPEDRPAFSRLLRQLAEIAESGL
Assay: ITK enzyme assay (Caliper or LCMS peptide phosphorylation)
Format: biochemical
Conditions: purified ITK (Invitrogen PV3875), 20 μM ATP, Ki by Morrison's quadratic equation
Method in brief: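 Ki values come from Morrison quadratic fits of activity versus inhibitor concentration, adjusted for ATP-competitive inhibition against ATP/Km,app. Substrate and phosphopeptide from purified ITK reactions were resolved either microfluidically (Caliper, EDTA stop) or by LC-MS MRM (TCA stop).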

Ki [nM] | SMILES
12 | CC1CC(C(c2ccccc2)n2cc(NC(=O)c3n[nH]c4c3CCC(C)(C)C4)cn2)CCS1(=O)=O (single isomer, unassigned) [Example 139d, 6,6-dimethyl-N-(1-((2-methyl-1,1-dioxidotetrahydro-2H-thiopyran-4-yl)(phenyl)methyl)-1H-pyrazol-4-yl)-4,5,6,7-tetrahydro-1H-indazole-3-carboxamide]
1 | CC1CC(C(c2ccccc2)n2cc(NC(=O)c3n[nH]c4c3CCC(C)(C)C4)cn2)CCS1(=O)=O (single isomer, unassigned) [Example 139e, 6,6-dimethyl-N-(1-((2-methyl-1,1-dioxidotetrahydro-2H-thiopyran-4-yl)(phenyl)methyl)-1H-pyrazol-4-yl)-4,5,6,7-tetrahydro-1H-indazole-3-carboxamide]
0.6 | CC1CC(C(c2ccccc2)n2cc(NC(=O)c3n[nH]c4c3CCC(C)(C)C4)cn2)CCS1(=O)=O (single isomer, unassigned) [Example 139f, 6,6-dimethyl-N-(1-((2-methyl-1,1-dioxidotetrahydro-2H-thiopyran-4-yl)(phenyl)methyl)-1H-pyrazol-4-yl)-4,5,6,7-tetrahydro-1H-indazole-3-carboxamide]
8 | CC1CC(C(c2ccccc2)n2cc(NC(=O)c3n[nH]c4c3CCC(C)(C)C4)cn2)CCS1(=O)=O (single isomer, unassigned) [Example 139g, 6,6-dimethyl-N-(1-((2-methyl-1,1-dioxidotetrahydro-2H-thiopyran-4-yl)(phenyl)methyl)-1H-pyrazol-4-yl)-4,5,6,7-tetrahydro-1H-indazole-3-carboxamide]
12 | CC1CC(C(c2ccccc2)n2cc(NC(=O)c3n[nH]c4c3CCC(C)(C)C4)cn2)CCS1(=O)=O (single isomer, unassigned) [Example 139h, 6,6-dimethyl-N-(1-((2-methyl-1,1-dioxidotetrahydro-2H-thiopyran-4-yl)(phenyl)methyl)-1H-pyrazol-4-yl)-4,5,6,7-tetrahydro-1H-indazole-3-carboxamide]
0.4 | CC1(C)CCc2c(C(=O)Nc3cnn(C(c4ccccc4)C4CC[N+](C)([O-])CC4)c3)n[nH]c2C1 (single isomer, unassigned) [Example 140a, 4-((4-(6,6-dimethyl-4,5,6,7-tetrahydro-1H-indazole-3-carboxamido)-1H-pyrazol-1-yl)(phenyl)methyl)-1-methylpiperidine 1-oxide]
14 | CC1(C)CCc2c(C(=O)Nc3cnn(C(c4ccccc4)C4CC[N+](C)([O-])CC4)c3)n[nH]c2C1 (single isomer, unassigned) [Example 140b, 4-((4-(6,6-dimethyl-4,5,6,7-tetrahydro-1H-indazole-3-carboxamido)-1H-pyrazol-1-yl)(phenyl)methyl)-1-methylpiperidine 1-oxide]
< 0.1 | CC12Cc3[nH]nc(C(=O)Nc4cnn(C(c5ccccc5)C5CC[S+]([O-])CC5)c4)c3CC1C2(F)F (single isomer, unassigned) [Example 142a, 5,5-difluoro-5a-methyl-N-(1-((1-oxidotetrahydro-2H-thiopyran-4-yl)(phenyl)methyl)-1H-pyrazol-4-yl)-1,4,4a,5,5a,6-hexahydrocyclopropa[f]indazole-3-carboxamide]
< 0.1 | CC12Cc3[nH]nc(C(=O)Nc4cnn(C(c5ccccc5)C5CC[S+]([O-])CC5)c4)c3CC1C2(F)F (single isomer, unassigned) [Example 142b, 5,5-difluoro-5a-methyl-N-(1-((1-oxidotetrahydro-2H-thiopyran-4-yl)(phenyl)methyl)-1H-pyrazol-4-yl)-1,4,4a,5,5a,6-hexahydrocyclopropa[f]indazole-3-carboxamide]
< 0.1 | CC12Cc3[nH]nc(C(=O)Nc4cnn(C(c5ccccc5)C5CCCCS5(=O)=O)c4)c3CC1C2 (single isomer, unassigned) [Example 143a, N-(1-((1,1-dioxidotetrahydro-2H-thiopyran-2-yl)(phenyl)methyl)-1H-pyrazol-4-yl)-5a-methyl-1,4,4a,5,5a,6-hexahydrocyclopropa[f]indazole-3-carboxamide]
2 | CC12Cc3[nH]nc(C(=O)Nc4cnn(C(c5ccccc5)C5CCCCS5(=O)=O)c4)c3CC1C2 (single isomer, unassigned) [Example 143b, N-(1-((1,1-dioxidotetrahydro-2H-thiopyran-2-yl)(phenyl)methyl)-1H-pyrazol-4-yl)-5a-methyl-1,4,4a,5,5a,6-hexahydrocyclopropa[f]indazole-3-carboxamide]
2 | CC12Cc3[nH]nc(C(=O)Nc4cnn(C(c5ccccc5)C5CCCCS5(=O)=O)c4)c3CC1C2 (single isomer, unassigned) [Example 143c, N-(1-((1,1-dioxidotetrahydro-2H-thiopyran-2-yl)(phenyl)methyl)-1H-pyrazol-4-yl)-5a-methyl-1,4,4a,5,5a,6-hexahydrocyclopropa[f]indazole-3-carboxamide]
< 0.1 | CC12Cc3[nH]nc(C(=O)Nc4cnn(C(c5ccccc5)C5CCCCS5(=O)=O)c4)c3CC1C2 (single isomer, unassigned) [Example 143d, N-(1-((1,1-dioxidotetrahydro-2H-thiopyran-2-yl)(phenyl)methyl)-1H-pyrazol-4-yl)-5a-methyl-1,4,4a,5,5a,6-hexahydrocyclopropa[f]indazole-3-carboxamide]
0.1 | CC1(C)CCc2c(C(=O)Nc3cnn(C(c4cccnc4)C4CCCCS4(=O)=O)c3)n[nH]c2C1 (single isomer, unassigned) [Example 144a, N-(1-((1,1-dioxidotetrahydro-2H-thiopyran-2-yl)(pyridin-3-yl)methyl)-1H-pyrazol-4-yl)-6,6-dimethyl-4,5,6,7-tetrahydro-1H-indazole-3-carboxamide]
3 | CC1(C)CCc2c(C(=O)Nc3cnn(C(c4cccnc4)C4CCCCS4(=O)=O)c3)n[nH]c2C1 (single isomer, unassigned) [Example 144b, N-(1-((1,1-dioxidotetrahydro-2H-thiopyran-2-yl)(pyridin-3-yl)methyl)-1H-pyrazol-4-yl)-6,6-dimethyl-4,5,6,7-tetrahydro-1H-indazole-3-carboxamide]
0.1 | CC1(C)CCc2c(C(=O)Nc3cnn(C(c4cccnc4)C4CCCCS4(=O)=O)c3)n[nH]c2C1 (single isomer, unassigned) [Example 144c, N-(1-((1,1-dioxidotetrahydro-2H-thiopyran-2-yl)(pyridin-3-yl)methyl)-1H-pyrazol-4-yl)-6,6-dimethyl-4,5,6,7-tetrahydro-1H-indazole-3-carboxamide]
2 | CC1(C)CCc2c(C(=O)Nc3cnn(C(c4cccnc4)C4CCCCS4(=O)=O)c3)n[nH]c2C1 (single isomer, unassigned) [Example 144d, N-(1-((1,1-dioxidotetrahydro-2H-thiopyran-2-yl)(pyridin-3-yl)methyl)-1H-pyrazol-4-yl)-6,6-dimethyl-4,5,6,7-tetrahydro-1H-indazole-3-carboxamide]
0.1 | CC12Cc3[nH]nc(C(=O)Nc4cnn(C(c5cccnc5)C5CC[S+]([O-])CC5)c4)c3CC1C2 (single isomer, unassigned) [Example 146a, 5a-methyl-N-(1-((1-oxidotetrahydro-2H-thiopyran-4-yl)(pyridin-3-yl)methyl)-1H-pyrazol-4-yl)-1,4,4a,5,5a,6-hexahydrocyclopropa[f]indazole-3-carboxamide]
2 | CC12Cc3[nH]nc(C(=O)Nc4cnn(C(c5cccnc5)C5CC[S+]([O-])CC5)c4)c3CC1C2 (single isomer, unassigned) [Example 146b, 5a-methyl-N-(1-((1-oxidotetrahydro-2H-thiopyran-4-yl)(pyridin-3-yl)methyl)-1H-pyrazol-4-yl)-1,4,4a,5,5a,6-hexahydrocyclopropa[f]indazole-3-carboxamide]
0.1 | CC12Cc3[nH]nc(C(=O)Nc4cnn(C(c5cccnc5)C5CC[S+]([O-])CC5)c4)c3CC1C2 (single isomer, unassigned) [Example 146c, 5a-methyl-N-(1-((1-oxidotetrahydro-2H-thiopyran-4-yl)(pyridin-3-yl)methyl)-1H-pyrazol-4-yl)-1,4,4a,5,5a,6-hexahydrocyclopropa[f]indazole-3-carboxamide]
2 | CC12Cc3[nH]nc(C(=O)Nc4cnn(C(c5cccnc5)C5CC[S+]([O-])CC5)c4)c3CC1C2 (single isomer, unassigned) [Example 146d, 5a-methyl-N-(1-((1-oxidotetrahydro-2H-thiopyran-4-yl)(pyridin-3-yl)methyl)-1H-pyrazol-4-yl)-1,4,4a,5,5a,6-hexahydrocyclopropa[f]indazole-3-carboxamide]
0.6 | CC1(C)CCc2c(C(=O)Nc3cnn(C(c4cccnc4)C4CC[S+]([O-])CC4)c3)n[nH]c2C1 (single isomer, unassigned) [Example 147a, 6,6-dimethyl-N-(1-((1-oxidotetrahydro-2H-thiopyran-4-yl)(pyridin-3-yl)methyl)-1H-pyrazol-4-yl)-4,5,6,7-tetrahydro-1H-indazole-3-carboxamide]
